{"source": "patent US8629145B2", "about": "“Therapeutic agent for spinal canal stenosis” (Nippon Shinyaku Co., Ltd., priority 2008, dated 2014)", "test_system": "model rats suffering from walking disability due to compression of cauda equina", "assay": "walking disability model due to compression of cauda equina (treadmill walking distance)", "format": "in vivo, Wistar strain rats", "details": "rat, oral twice daily, suspension 0.2 mg/mL in 0.5 w/v % methyl cellulose, until 13th or 20th day after operation; vs control group p<0.01", "method": "Wistar strain rats (male; seven weeks age) (Charles Liver Japan) were subjected to a walk training once daily for continuous three or four days using a treadmill (manufactured by Muromachi Kikai). On the last day of the walk training, the animals were grouped and, on the next day, the walking time was measured and then a sham operation or an operation for compressing the cauda equina mentioned below i) was carried out. On the third, seventh, fourteenth and twenty-first days after the operation, walking time was measured. Based on the walking time measured, a walking distance was calculated.\nAfter measuring the walking time on the third day, the group for which the operation for compressing the cauda equina was carried out was further grouped into a control group and a drug-administered group on the basis of their walking distances on the day when the operation was done and on the third day after the operation. […]\nThe treadmill was operated and walking time of each rat was measured using a timer. […]\nAs to the evaluation, the control group was evaluated by a Welch test against the sham operation group (##: p<0.01). The drug-administered group was evaluated by a t-test or a Welch test against the control group (★★: p<0.01)."}
{"compound": "CC(C)N(CCCCOCC(=O)NS(C)(=O)=O)c1cnc(-c2ccccc2)c(-c2ccccc2)n1", "note": "[compound A, 2-{4-[N-(5,6-diphenylpyrazin-2-yl)-N-isopropylamino]butyloxy}-N-(methylsulfonyl)acetamide]", "values": [{"measurement": "disability in walking due to compression of cauda equina (walking distance)", "result": "significantly improved"}]}
